The record followed here is US6583154B1, “Compounds and methods which modulate feeding behavior and related diseases” (Amgen Inc., priority 1998, dated 2003).

Molecules are shown by their SMILES. Bounds are passed on as bounds.

The term melting point denotes the temperature, or range, at which the solid turns liquid.

The test system of data set [1] is Long-Evans male rats. In words: Icv administration of compounds in food-deprived Long-Evans male rats, food intake. As to conditions: Long-Evans male rats food deprived for 16 hours; I.C.V. injection in DMSO, 20 μl; 4 hours post-injection; vehicle 8.69 ± 0.53; * significantly different from vehicle, p < 0.05. The data set is classed as in vivo. As to the method: Protocol for Icv Administration of Compounds in Food-Deprived Long-Evans Male Rats
(§1) Adult male Long-Evans rats (approx. 275 g) were obtained from Charles River Laboratories (Wilmington, MA) and given one week to acclimate to the animal facility. Animals were housed individually and given ad-lib access to food and water. After acclimation, animals were anesthetized (75 mg/kg Sodium Nembutal) and implanted with 23 g cannulas (Plastics One, Roanoke, VA) into the right lateral cerebral ventricle. All animals were given at least 1 week post-operative recover before any experiment.
Animals were food deprived for 16 hours prior to injections. Intracerebroventricular injection of compounds was done in awake, unrestrained animals in a DMSO vehicle in a volume of 20 μl. Immediately following the injection, the animals were returned to their home cage and were provided with a pre-weighed portion of regular rat chow pellets. Total food consumed was measured at 2 and 4 hours post-injection.

Another data set has as its system pNPY induced feeding. In words: Icv administration of NPY antagonists against pNPY induced feeding in satiated Long-Evans male rats. The class given is in vivo. Particulars: I.C.V. antagonist in DMSO 20 μl, about 15 min later 5 μl pNPY, high sucrose mash, 4 hours post-injection, vehicle 5.29 ± 0.97, * significantly different from vehicle, p < 0.05. As to the method:
Protocol for Icv Administration of NPY Antagonists Against pNPY Induced Feeding in Satiated Long-Evans Male Rats
as §1
Approximately 16 hours prior to injection, animals were provided with access to 30 grams of a sucrose/condensed milk/rat chow mash along with their regular chow. Ninety minutes prior to injections, regular chow was removed from the cages and animals were provided with a fresh portion of the high sucrose mash. Intracerebroventricular injection of antagonist or vehicle was done in awake, unrestrained animals in a DMSO vehicle in a volume of 20 μl. Approximately 15 minutes after the administration of the antagonist or vehicle, animals were given a second 5 μl injection of either water or pNPY. After the second injection, the portion of high sucrose mash was weighed and total food consumed was measured at 2 and 4 hours post-injection.

Data set [2] deals with Long-Evans male rats. In words: IP administration of compounds in fasted Long-Evans male rats, 2 hr food intake. The data set is classed as in vivo. As to conditions: Rattus norvegicus; male Long Evans rats fasted 18-20 hr; 30 mg/kg (ip) in 2% tween; food given after 30 min, weighed 2 hr later; vs vehicle; read-out: inhibition of feeding (2 hr food intake).
The test system of another data set is OB/OB female mice. In words: Icv administration of compounds in ad-lib fed OB/OB female mice, food intake. The data set is classed as in vivo. Particulars: I.C.V. injection in 100% DMSO, 5 μl, 4 hours post-injection, vehicle 0.61 ± 0.10, * significantly different from vehicle, p < 0.05. The text has this:
Protocol For Icv Administration of Compounds In Ad-Lib Fed OB/OB Female Mice.
Eight week old (approx. 50 g) OB/OB female mice were obtained from Jackson Laboratories (Bar Harbor, ME) and given one week to acclimate to the animal facility before the experiment. Animals were housed 10 per cage and were provided with food and water ad-lib. Immediately prior to injection, animals were removed from group housing and lightly anesthetized using 4% isofluorane vapor. Freehand intracerebroventricular (“icv”) injection of compounds was done in a 100% DMSO vehicle in a volume of 5 μl. Immediately following the injection, animals were placed in individual cages and were provided with a pre-weighed portion of regular chow pellets. Total amount of food consumed was measured at 1, 2, 4 and 24 hours post-injection.

Another data set relates to Male BALB-C mice. Put plainly: IP administration of compounds in fasted male BALB-C mice, 2 hr food intake. The data set is classed as in vivo. As to conditions: Mus musculus; male BALB-C mice fasted 18-20 hr; 30 mg/kg (ip) in 2% tween; food given after 30 min, weighed 2 hr later; vs vehicle; read-out: inhibition of feeding (2 hr food intake). The text has this: Protocol For IP Administration Of Compounds In Male BALB-C Mice.
Male BALB-C mice (20-25 g)were obtained from Charles Rivers (Wilmington, Mass.) and were given at least a one week acclimation period to Amgen's animal care facilities. Animals were housed 10/cage and were provided ad libitum food and water. For testing, mice were fasted for 18-20 hr (overnight) prior to the start of the experiment. On the day of the experiment, mice were removed from group housing and placed into individual cages (without food). Test compounds or vehicle was then administered via the intraperitoneal (i.p.) route of administration. Test compounds were suspended in a 2% tween solution; the 2% tween solution was used as the vehicle treatment (control group). Group sizes for each treatment were 6-8 animals. After 30 min, premeasured food was placed into the cages. Two hours later, the food was weighed again. The difference between 2 hr weight and the premeasured weight was taken as 2 hr food intake.

`CCN(CC)c1nc(C)nc2cc(-c3ccccc3)[nH]c12` [Example 1f, Diethyl(2-methyl-6-phenylpyrrolo[2,3-e]pyrimidin-4-yl)amine]: the melting point was in the range of 184 to 185 °C. Besides, the “4 hr food intake (g ± S.E.M.)” value with Long-Evans male rats [1] is listed as 5.13 ± 1.40* g.

Take `Cc1nc(N2CCc3ccccc3C2)c2[nH]c(-c3ccccc3)cc2n1` [Example 2]: the melting point was 251 to 253 °C (dec.). Also, the “4 hr food intake (g ± S.E.M.)” value in the data set with pNPY induced feeding is listed as 3.35 ± 0.62* g.

`Cc1nc(N2CCCCC2)c2[nH]c(-c3ccccc3)cc2n1` [Example 35, 2-methyl-6-phenyl-4-(piperidinyl)pyrrolo[3,2-d]pyrimidine]: the inhibition in vivo at 30 mg/kg in the data set on Long-Evans male rats [2] and in the data set with Male BALB-C mice was at least 10% in each case. For the same compound, the “4 hr food intake (g ± S.E.M.)” value in the data set with OB/OB female mice is given as 0.29 ± 0.11* g.

`CCc1nc(N2CCCCC2)c2oc(-c3ccc(Cl)cc3)cc2n1` [Example 96, 6-(4-Chlorophenyl)-2-ethyl-4-piperidinylfurano[3,2-d]pyrimidine] registered a melting point above 288 °C. For the same compound, the inhibition in vivo at 30 mg/kg with Long-Evans male rats [2] is at least 10%. Also, the inhibition in vivo at 30 mg/kg in the data set on Male BALB-C mice was at least 10%.
